Source: patent US4183940A, “Antimycotic imidazolyl-9,10-dihydro-anthracene derivatives” (Bayer Aktiengesellschaft, priority 1976, dated 1980)
In brackets after ≈: the same amount, converted by molar mass.

Key:
Candida albicans = assay: Antimycotic in vitro activity (series dilution test), Candida albicans; assay type: cell-based; conditions: meat extract/glucose broth, 28° C., 24 to 96 hours; for MIC: Candida albicans, read-out: MIC values in γ/ml of nutrient medium for Candida albicans
Procedure: (§1) The invitro tests were carried out in a series dilution test with germ inocula of an average of 5×10^4 germs/ml of substrate. The nutrient medium was (a) for dermatophytes and moulds: Sabouraud's milieu d 'epreuve and (b) for yeasts: meat extract/glucose broth. The incubation temperature was 28° C. and the duration of incubation was 24 to 96 hours.

[1] = tested on: Trichophyton mentagrophytes; assay: Antimycotic in vitro activity (series dilution test), Trichophyton mentagrophytes; assay type: cell-based; conditions: Sabouraud's milieu d'epreuve, 28° C., 24 to 96 hours; for MIC: Trichophyton mentagrophytes, read-out: MIC values in γ/ml of nutrient medium for Trichophyton mentagrophytes
Procedure: as §1

Penicillium commune = assay: Antimycotic in vitro activity (series dilution test), Penicillium commune; assay type: cell-based; conditions: Sabouraud's milieu d'epreuve, 28° C., 24 to 96 hours; for MIC: Penicillium commune, read-out: MIC values in γ/ml of nutrient medium for Penicillium commune
Procedure: as §1

Aspergillus species = assay: Antimycotic in vitro activity (series dilution test), Aspergillus species; assay type: cell-based; conditions: Sabouraud's milieu d'epreuve, 28° C., 24 to 96 hours; for MIC: Aspergillus, read-out: MIC values in γ/ml of nutrient medium for Aspergillus species
Procedure: as §1

Microsporon felineum = assay: Antimycotic in vitro activity (series dilution test), Microsporon felineum; assay type: cell-based; conditions: Sabouraud's milieu d'epreuve, 28° C., 24 to 96 hours; for MIC: read-out: MIC values in γ/ml of nutrient medium for Microsporon felineum
Procedure: as §1

Candida = assay: Antimycotic in vivo activity (oral) in candidosis of mice; set-up: key: +++++: very good action=≥90% of survivors on the 6th day after infection; ++++: good action=≥80% of survivors on the 6th day after infection; +++: action=≥60% of survivors on the 6th day after infection; ++: poor action=≥40% of survivors on the 6th day after infection; +: trace of action; n.a.: no action; conditions: mice SPF-CF1, i.v. infection with Candida, 100 mg/kg oral one hour before and seven hours after infection
Procedure: Mice of the type SPF-CF1 were infected intravenously with 1-2×10^6 logarithmically growing Candida cells, which were suspended in physiological sodium chloride solution. The animals were treated orally one hour before and seven hours after the infection with, in each case, 100 mg/kg of body weight of the formulations.
Untreated animals died from the infection 2 to 6 days after infection. The survival rate on the 6th day after infection was about 5% in the case of the untreated control animals.

MIC [1]	MIC (Penicillium commune)	MIC (Candida albicans)	MIC (Aspergillus species)	MIC (Microsporon felineum)	SMILES	MIC values in γ/ml of nutrient medium for Candida albicans (Candida albicans)	MIC values in γ/ml of nutrient medium for Aspergillus species (Aspergillus species)	MIC values in γ/ml of nutrient medium for Microsporon felineum (Microsporon felineum)	MIC values in γ/ml of nutrient medium for Trichophyton mentagrophytes [1]	MIC values in γ/ml of nutrient medium for Penicillium commune (Penicillium commune)	Action (survivors on the 6th day after infection) (Candida)
–	–	–	–	–	O=C1c2ccccc2C(c2ccccc2)(n2ccnc2)c2ccccc21 [drawing 19]	8 µg/mL	32 µg/mL	< 1 µg/mL	< 1 µg/mL	8 µg/mL	–
–	–	–	–	–	O=C1c2ccccc2C(c2ccccc2)(n2ccnc2)c2ccccc21 [drawing 20]	> 64 µg/mL	64 µg/mL	4 µg/mL	< 1 µg/mL	8 µg/mL	–
–	–	–	–	–	O=C1c2ccccc2C(c2ccccc2)(n2ccnc2)c2ccccc21 [drawing 21]	> 64 µg/mL	32 µg/mL	4 µg/mL	< 1 µg/mL	8 µg/mL	–
–	–	–	–	–	Cc1ccccc1C1(n2ccnc2)c2ccccc2C(=O)c2ccccc21 [drawing 23]	32 µg/mL	> 64 µg/mL	1 µg/mL	< 1 µg/mL	4 µg/mL	–
< 1 µg/mL	–	64 µg/mL (≈ 183 µM)	> 64 µg/mL	8 µg/mL (≈ 22.8 µM)	Cc1ccc(C2(n3ccnc3)c3ccccc3C(=O)c3ccccc32)cc1 [drawing 24]	–	–	–	–	64 µg/mL	–
–	–	–	–	–	Cc1ccc(C2(n3ccnc3)c3ccccc3C(=O)c3ccccc32)cc1 [drawing 25]	> 64 µg/mL	> 64 µg/mL	4 µg/mL	< 1 µg/mL	8 µg/mL	–
–	–	–	–	–	O=C1c2ccccc2C(c2ccccc2)(n2ccnc2)c2ccccc21 [drawing 31]	–	–	–	–	–	+++ (action=≥60% of survivors on the 6th day after infection)
–	–	–	–	–	c1ccc(C2(n3ccnc3)c3ccccc3C(c3ccccc3)(n3ccnc3)c3ccccc32)cc1 (stereo not drawn) [drawing 32]	–	–	–	–	–	++ (poor action=≥40% of survivors on the 6th day after infection)
–	–	–	–	–	Cc1ccccc1C1(n2ccnc2)c2ccccc2C(=O)c2ccccc21 [drawing 35]	–	–	–	–	–	+
> 100 µg/mL	100 µg/mL (≈ 308 µM)	20 µg/mL (≈ 61.7 µM)	–	> 100 µg/mL	c1ccc(C2(n3ccnc3)c3ccccc3Oc3ccccc32)cc1 [reference compound]	–	–	–	–	–	–
> 100 µg/mL	> 100 µg/mL	40 µg/mL (≈ 117 µM)	–	> 100 µg/mL	c1ccc(C2(n3ccnc3)c3ccccc3Sc3ccccc32)cc1 [reference compound]	–	–	–	–	–	–
< 4 µg/mL	> 100 µg/mL	100 µg/mL (≈ 282 µM)	> 100 µg/mL	20 µg/mL (≈ 56.4 µM)	CSc1ccc(C2(n3ccnc3)c3ccccc3-c3ccccc32)cc1 [reference compound]	–	–	–	–	–	–
10 µg/mL (≈ 26.1 µM)	> 100 µg/mL	–	> 100 µg/mL	40 µg/mL (≈ 105 µM)	CSc1ccc(C2(n3ccnc3)c3ccccc3CCc3ccccc32)cc1 [reference compound]	–	–	–	–	–	–

SMILES	MIC [1]	MIC (Penicillium commune)	MIC (Candida albicans)	MIC (Aspergillus species)	MIC (Microsporon felineum)	MIC values in γ/ml of nutrient medium for Candida albicans (Candida albicans)	MIC values in γ/ml of nutrient medium for Aspergillus species (Aspergillus species)	MIC values in γ/ml of nutrient medium for Microsporon felineum (Microsporon felineum)	MIC values in γ/ml of nutrient medium for Trichophyton mentagrophytes [1]	MIC values in γ/ml of nutrient medium for Penicillium commune (Penicillium commune)	Action (survivors on the 6th day after infection) (Candida)
O=C1c2ccccc2C(c2ccccc2)(n2ccnc2)c2ccccc21 [drawing 18]	< 1 µg/mL	4 µg/mL (≈ 11.9 µM)	–	–	–	4 µg/mL	4 µg/mL	8 µg/mL	–	–	–
Cc1ccccc1C1(n2ccnc2)c2ccccc2C(=O)c2ccccc21 [drawing 22]	< 1 µg/mL	–	> 64 µg/mL	> 64 µg/mL	< 1 µg/mL	–	–	–	–	> 64 µg/mL	–
c1ccc(C2(n3ccnc3)c3ccccc3C(c3ccccc3)(n3ccnc3)c3ccccc32)cc1 (stereo not drawn) [drawing 26]	32 µg/mL (≈ 68.9 µM)	> 64 µg/mL	4 µg/mL (≈ 8.61 µM)	–	–	–	–	–	–	–	–
